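Cells were grown in 96-well plates and exposed to each compound for 48 hours at five concentrations; endpoints were interpolated linearly between bracketing concentrations, or set to the highest concentration if not reached. Here, GI50 denotes the concentration required for 50% inhibition of growth. TGI denotes the concentration required for complete inhibition of growth.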
Assays:
Assay in all cases: NCI-60 cell line screen, 48 h; in the data active means GI50 below about 0.43 µM; inactive means the rest
786-0 renal = test system: 786-0 renal
A498 renal = test system: A498 renal
A549 NSCLC = test system: A549 NSCLC
ACHN renal = test system: ACHN renal
BT-549 breast = test system: BT-549 breast
CAKI-1 renal = test system: CAKI-1 renal
CCRF-CEM leukemia = test system: CCRF-CEM leukemia
COLO 205 colon = test system: COLO 205 colon
DU-145 prostate = test system: DU-145 prostate
EKVX NSCLC = test system: EKVX NSCLC
HCC-2998 colon = test system: HCC-2998 colon
HCT-116 colon = test system: HCT-116 colon
HCT-15 colon = test system: HCT-15 colon
HL-60(TB) leukemia = test system: HL-60(TB) leukemia
HOP-62 NSCLC = test system: HOP-62 NSCLC
HOP-92 NSCLC = test system: HOP-92 NSCLC
HS 578T breast = test system: HS 578T breast
HT29 colon = test system: HT29 colon
IGROV1 ovarian = test system: IGROV1 ovarian
K-562 leukemia = test system: K-562 leukemia
KM12 colon = test system: KM12 colon
LOX IMVI melanoma = test system: LOX IMVI melanoma
M14 melanoma = test system: M14 melanoma
MALME-3M melanoma = test system: MALME-3M melanoma
MCF7 breast = test system: MCF7 breast
MDA-MB-435 = test system: MDA-MB-435
MOLT-4 leukemia = test system: MOLT-4 leukemia
NCI-H226 lung = test system: NCI-H226 lung
NCI-H23 lung = test system: NCI-H23 lung
NCI-H460 lung = test system: NCI-H460 lung
NCI-H522 lung = test system: NCI-H522 lung
NCI/ADR-RES ovarian = test system: NCI/ADR-RES ovarian
OVCAR-3 ovarian = test system: OVCAR-3 ovarian
OVCAR-4 ovarian = test system: OVCAR-4 ovarian
OVCAR-5 ovarian = test system: OVCAR-5 ovarian
OVCAR-8 ovarian = test system: OVCAR-8 ovarian
PC-3 prostate = test system: PC-3 prostate
RPMI-8226 leukemia = test system: RPMI-8226 leukemia
RXF 393 renal = test system: RXF 393 renal
SF-268 CNS = test system: SF-268 CNS
SF-295 CNS = test system: SF-295 CNS
SF-539 CNS = test system: SF-539 CNS
SK-MEL-2 melanoma = test system: SK-MEL-2 melanoma
SK-MEL-28 melanoma = test system: SK-MEL-28 melanoma
SK-MEL-5 melanoma = test system: SK-MEL-5 melanoma
SK-OV-3 ovarian = test system: SK-OV-3 ovarian
SN12C renal = test system: SN12C renal
SNB-19 CNS = test system: SNB-19 CNS
SNB-75 CNS = test system: SNB-75 CNS
SR leukemia = test system: SR leukemia
SW-620 colon = test system: SW-620 colon
T-47D breast = test system: T-47D breast
TK-10 renal = test system: TK-10 renal
U251 CNS = test system: U251 CNS
UACC-257 melanoma = test system: UACC-257 melanoma
UACC-62 melanoma = test system: UACC-62 melanoma
UO-31 renal = test system: UO-31 renal

O=C(CSc1nnc(-c2ccc(Cl)cc2)n1-c1ccccc1)Nc1ccc(Cl)cc1
> 100 µM: TGI (A549 NSCLC) | TGI (CCRF-CEM leukemia) | TGI (COLO 205 colon) | TGI (DU-145 prostate) | TGI (EKVX NSCLC) | TGI (HCC-2998 colon) | TGI (HCT-15 colon) | TGI (HL-60(TB) leukemia) | TGI (HS 578T breast) | TGI (HT29 colon) | TGI (IGROV1 ovarian) | TGI (K-562 leukemia) | TGI (KM12 colon) | TGI (M14 melanoma) | TGI (MCF7 breast) | TGI (MDA-MB-435) | TGI (MOLT-4 leukemia) | TGI (NCI/ADR-RES ovarian) | TGI (OVCAR-4 ovarian) | TGI (OVCAR-5 ovarian) | TGI (PC-3 prostate) | TGI (RPMI-8226 leukemia) | TGI (SF-268 CNS) | TGI (SK-MEL-28 melanoma) | TGI (SK-MEL-5 melanoma) | TGI (SN12C renal) | TGI (SNB-19 CNS) | TGI (SR leukemia) | TGI (SW-620 colon) | TGI (T-47D breast) | TGI (UACC-257 melanoma) | TGI (UACC-62 melanoma)
5.76 µM: TGI (TK-10 renal)
5.15 µM: TGI (A498 renal)
17.3 µM: TGI (SK-OV-3 ovarian)
20.8 µM: TGI (NCI-H226 lung)
38.8 µM: TGI (BT-549 breast)
22.3 µM: TGI (MALME-3M melanoma)
4.29 µM: TGI (HCT-116 colon)
5.2 µM: TGI (UO-31 renal)
57.8 µM: TGI (OVCAR-3 ovarian)
inactive: GI50 (786-0 renal) 1.92 µM | GI50 (A498 renal) 1.88 µM | GI50 (A549 NSCLC) 3.67 µM | GI50 (ACHN renal) 1.76 µM | GI50 (BT-549 breast) 3.66 µM | GI50 (CAKI-1 renal) 2.95 µM | GI50 (CCRF-CEM leukemia) > 100 µM | GI50 (COLO 205 colon) 15.7 µM | GI50 (DU-145 prostate) 7.41 µM | GI50 (EKVX NSCLC) 20.9 µM | GI50 (HCC-2998 colon) 43.9 µM | GI50 (HCT-116 colon) 1.98 µM | GI50 (HCT-15 colon) 87.1 µM | GI50 (HL-60(TB) leukemia) > 100 µM | GI50 (HOP-62 NSCLC) 3.34 µM | GI50 (HOP-92 NSCLC) 2.72 µM | GI50 (HS 578T breast) 3.52 µM | GI50 (HT29 colon) 7.79 µM | GI50 (IGROV1 ovarian) 5.24 µM | GI50 (K-562 leukemia) 13.4 µM | GI50 (KM12 colon) 47.1 µM | GI50 (LOX IMVI melanoma) 2.98 µM | GI50 (M14 melanoma) 25.1 µM | GI50 (MALME-3M melanoma) 3.67 µM | GI50 (MCF7 breast) 5.76 µM | GI50 (MDA-MB-435) 21.5 µM | GI50 (MOLT-4 leukemia) > 100 µM | GI50 (NCI-H226 lung) 3.2 µM | GI50 (NCI-H23 lung) 5.09 µM | GI50 (NCI-H460 lung) 2.77 µM | GI50 (NCI-H522 lung) 3.11 µM | GI50 (NCI/ADR-RES ovarian) 4.06 µM | GI50 (OVCAR-3 ovarian) 6.2 µM | GI50 (OVCAR-4 ovarian) 3.38 µM | GI50 (OVCAR-5 ovarian) 4.89 µM | GI50 (OVCAR-8 ovarian) 3.79 µM | GI50 (PC-3 prostate) 20.1 µM | GI50 (RPMI-8226 leukemia) 4.14 µM | GI50 (RXF 393 renal) 2.03 µM | GI50 (SF-268 CNS) 4.85 µM | GI50 (SF-295 CNS) 5.56 µM | GI50 (SF-539 CNS) 2.38 µM | GI50 (SK-MEL-2 melanoma) 13.6 µM | GI50 (SK-MEL-28 melanoma) 15.4 µM | GI50 (SK-MEL-5 melanoma) 8.07 µM | GI50 (SK-OV-3 ovarian) 4.53 µM | GI50 (SN12C renal) 3.19 µM | GI50 (SNB-19 CNS) 7.08 µM | GI50 (SNB-75 CNS) 1.57 µM | GI50 (SR leukemia) 4.28 µM | GI50 (SW-620 colon) 8.68 µM | GI50 (T-47D breast) 3.2 µM | GI50 (TK-10 renal) 2.2 µM | GI50 (U251 CNS) 3.2 µM | GI50 (UACC-257 melanoma) 39.8 µM | GI50 (UACC-62 melanoma) 4.81 µM | GI50 (UO-31 renal) 1.83 µM
16 µM: TGI (HOP-62 NSCLC)
5.18 µM: TGI (SF-539 CNS)
4.57 µM: TGI (SNB-75 CNS)
29.9 µM: TGI (OVCAR-8 ovarian)
10.2 µM: TGI (LOX IMVI melanoma)
8.09 µM: TGI (NCI-H460 lung)
4.09 µM: TGI (786-0 renal)
11.5 µM: TGI (U251 CNS)
9.6 µM: TGI (HOP-92 NSCLC)
3.98 µM: TGI (ACHN renal)
17.2 µM: TGI (NCI-H522 lung)
21.1 µM: TGI (SF-295 CNS)
4.98 µM: TGI (RXF 393 renal)
63.8 µM: TGI (SK-MEL-2 melanoma)
13 µM: TGI (CAKI-1 renal)
43.7 µM: TGI (NCI-H23 lung)
